Assay results published in patent US20070021451A1, “Method for preventing or treating neurologic damage after spinal cord injury” (HAMAMATSU UNIVERSITY SCHOOL OF MEDICINE, priority 2005, published 2007).

Tested on: Rabbit Model of Spinal Cord Ischemia
Assay: TUNEL staining of motor neurons (mid lumbar segment)
Type: in vivo, New Zealand White rabbits
Details: NS-7 15 minutes before ischemia or at the onset of reperfusion; P<0.05 vs control (FIG. 6)
Experimental: Twenty-six male New Zealand White rabbits weighting 2.2 to 3.0 kg were used in this experiment. Spinal cord ischemia was induced by occluding the abdominal aorta with […] for 20 minutes just distal to the renal arteries. Surgical preparation was conducted according to the method described in the literature, Terada H. et. al., J. Thorac. Cardiovasc. Surg. 2001; 122: 979-85. A 24-gauge venous catheter was placed in the marginal ear vein for drug administration. The rabbits were anesthetized with intravenous sodium pentobarbital (25 mg/kg) and allowed to breathe spontaneously. Lidocaine (0.5%) was administered at the site of the skin incision as local anesthesia. The left common carotid artery was cannulated with a 24-gauge catheter for monitoring the arterial pressure. Core body temperature was continuously monitored with a rectal probe and was maintained at 38.5° C. with the aid of heating lamp. The infrarenal abdominal aorta was exposed through a transperitoneal approach. […] The number of motor neurons that were positive in TUNEL staining was counted in 3 sections, and the values were averaged (Sakurai M., J. Thorac. Cardiovasc. Surg. 2000; 120: 1148-57, Lang-Lazdunski L., J. Vasc. Surg. 2003; 38: 564-75). […]

For Cc1cc(-c2ccc(F)cc2)cc(OCCCCCN2CCCCC2)n1.Cl [NS-7, 4-(4-Fluorophenyl)-2-methyl-6-(5-piperidinopentyloxy)pyridine hydrochloride], the “Total number of apoptotic (TUNEL-positive) motor neurons” value was “strongly reduced”.
